Experimental data as given in patent US20160375006A1, “USES OF PARALOG-SELECTIVE INHIBITORS OF GSK3 KINASES” (priority 2012, published 2016).
≈ marks a conversion by molar mass, not a printed value. Entries after “also recorded” stand apart in the source; their conditions may differ.

How the values were obtained:
[1] = test system: amphetamine-induced hyperactivity; assay: Amphetamine-induced hyperactivity (AIH) in mice; type: in vivo, mouse; settings: versus vehicle
AML cell lines = assay: May-Grunwald Giemsa morphology of AML cell lines; type: cell-based; settings: three days after treatment
Method: On day three post-chemical treatment, cytospin preparations were performed. Changes in cellular morphology were evaluated by May-Grunwald Giemsa staining (Sigma Aldrich). Images were acquired by light microscopy at 400× magnification.

HL-60 and U937 cells = assay: GE-HTS 32-gene myeloid differentiation signature; type: cell-based; settings: three days
Source text: This assay uses ligation-mediated amplification with a fluorescent bead-based detection system to quantify the expression of up to 500 genes in a single well. Two primary scoring methods are used to quantify induction of the 32-gene myeloid differentiation signature. The Summed Score combines expression ratios (marker gene/control gene) by summing them with a sign determined by the expected direction of regulation from ATRA-treated positive controls. The Weighted Summed Score combines expression ratios by summing them with a weight and sign determined by the signal-to-noise ratio of each expression ratio for the positive control (ATRA-treated) and negative control (DMSO-treated) samples. To assess the statistical significance of the differences between these differentiation scores a one-way ANOVA with a Bonferroni correction as a post-hoc test was employed.

GSK3β [2] = target: T1, GSK3β (Homo sapiens, UniProt P49841); settings: GSK3β over GSK3α
T1 sequence (P49841 whole entry): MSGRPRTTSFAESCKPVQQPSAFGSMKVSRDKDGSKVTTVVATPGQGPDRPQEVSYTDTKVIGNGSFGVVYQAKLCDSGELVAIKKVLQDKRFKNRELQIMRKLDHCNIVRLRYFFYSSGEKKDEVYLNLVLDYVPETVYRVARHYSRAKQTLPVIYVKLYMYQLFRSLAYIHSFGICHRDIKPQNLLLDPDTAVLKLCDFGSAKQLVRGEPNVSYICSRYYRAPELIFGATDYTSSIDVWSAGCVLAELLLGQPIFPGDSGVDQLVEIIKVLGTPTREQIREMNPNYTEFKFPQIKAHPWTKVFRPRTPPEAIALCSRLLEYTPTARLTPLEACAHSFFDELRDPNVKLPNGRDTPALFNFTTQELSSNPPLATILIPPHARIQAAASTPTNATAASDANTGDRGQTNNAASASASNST

[3] = Pharmacokinetics and brain distribution in male C57BL/6 mice; settings: single i.p. dose 30 mg/kg (CHIR99021 12.5 mg/kg)
human iPSC-NPCs = assay: Neurogenesis assay (TCF/LEF-luciferase in human iPSC-NPCs); type: cell-based; settings: 24-h treatment
Method: Human neuroprogenitor cells were generated and derived according to methods known in the art. […] Single-cell suspensions were prepared from the human iPSC-NPCs, stably integrated with the TCF/LEF-luciferase reporter, and dispensed into 96- or 384-well plates at the seeding densities of 20,000 or 6,000 per well, respectively, using a Matrix WellMate (Thermo Scientific) microplate dispenser. A 96-well plate format was used for measuring Wnt3a and lithium (lithium chloride solution, 10 M; Fluka, St. Louis, Mo.) dose-response effects, whereas a 384-well plate format was used for all small-molecule probe treatments and chemical screening. The next day, cells were subjected to various 24-h treatments. Just prior to the luminescence reading, the plates were taken out of a 37° C. incubator and equilibrated to room temperature for 30 min before the SteadyGlo reagent (Promega, Madison, Wis.) was dispensed (volume equal 1:1 SteadyGlo:culture medium). Luminescence was measured after a 10-min incubation using an EnVision multilabel plate reader (PerkinElmer, Waltham, Mass.).

GSK3β [4] = target: T1, GSK3β; assay: Mechanism of action: ATP competition at GSK3β (Lineweaver-Burk, IC50 at two ATP concentrations); type: biochemical; settings: versus ATP
Method: . IC50s were measured against GSK3β at two different ATP concentrations. […]

PBS stability = type: physicochemical
Method: (§1) Stability was determined in the presence of PBS pH 7.4 with 0.1% DMSO. Each compound was prepared in duplicate on six separate plates and allowed to equilibrate at room temperature with a 250 rpm orbital shake for 48 hours. One plate was removed at each time point (0, 2, 4, 8, 24, and 48 hours). […] Additionally, to the remaining material at each time point, acetonitrile was added to force dissolution of compound (to test for recovery of compound). An aliquot of this was also analyzed by UPLC-MS.

GSH stability = type: physicochemical; settings: after 48 hours
Method: as §1, with “[…] and 50 μM glutathione” for “7.4”

[5] = in mice (mouse plasma), 5 hours
GSK3α = GSK3α (Homo sapiens, UniProt P49840); settings: read-out: Caliper Assay, GSK3α IC50
GSK3α, sequence (P49840 whole entry): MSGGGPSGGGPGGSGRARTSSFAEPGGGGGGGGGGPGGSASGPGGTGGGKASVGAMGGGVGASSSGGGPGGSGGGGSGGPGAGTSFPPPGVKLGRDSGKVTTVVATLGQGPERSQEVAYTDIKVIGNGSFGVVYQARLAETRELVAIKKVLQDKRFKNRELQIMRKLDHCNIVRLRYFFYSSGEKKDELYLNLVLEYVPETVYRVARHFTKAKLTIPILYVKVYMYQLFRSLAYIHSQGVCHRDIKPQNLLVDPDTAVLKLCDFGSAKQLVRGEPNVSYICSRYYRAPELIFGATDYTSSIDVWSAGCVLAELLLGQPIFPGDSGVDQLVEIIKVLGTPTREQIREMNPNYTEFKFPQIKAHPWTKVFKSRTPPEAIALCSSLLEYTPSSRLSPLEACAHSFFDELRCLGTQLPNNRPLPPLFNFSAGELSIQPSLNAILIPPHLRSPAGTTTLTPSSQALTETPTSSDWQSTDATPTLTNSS

in vitro = settings: mouse, plasma, pH 7.4
Method: Plasma protein binding was determined by equilibrium dialysis using the Rapid Equilibrium Dialysis (RED) device (Pierce Biotechnology, Rockford, Ill.) for both human and mouse plasma. […] Compounds were incubated at 37° C. for 5 hours with a 250 rpm orbital shake.

Method for panel of 311 kinases: Briefly, a selection of compounds was screened against a panel of kinases at a single concentration of 10 μM. […] This was completed utilizing one of two assays depending on the kinase being examined.
Test compounds were dissolved in and diluted with dimethylsulfoxide (DMSO) to generate a 100× sample solution. These were then diluted to 4× sample solutions in assay buffer to make the final test compound solutions. Reference compounds for assay control were prepared similarly.
A solution of IMAP binding reagent (IMAP Screening Express kit; Molecular Devices) (60 μL) was added to each well and incubated for 30 minutes.
A solution of termination buffer (QuickScout Screening assist MSA; Carna Biosciences) (60 μL) was added to each well. The entire reaction mixture was then applied to a LabChip3000 system (Caliper Life Science) and the product and substrate peptide peaks were separated and quantified.
Method for physchem: Solubility was determined in phosphate buffered saline (PBS) pH 7.4 with 1% DMSO. Each compound was prepared in duplicate at 100 μM in both 100% DMSO and PBS with 1% DMSO. Compounds were allowed to equilibrate at room temperature with a 250 rpm orbital shake for 24 hours.

CC1(C)CC(=O)C2=C(C1)Nc1n[nH]c(C(F)(F)F)c1C2(C)c1ccccc1 (racemic) [Compound 70, 4,7,7-trimethyl-4-phenyl-3-(trifluoromethyl)-6,7,8,9-tetrahydro-2H-pyrazolo[3,4-b]quinolin-5(4H)-one]
Amphetamine-induced hyperactivity, i.p. ([1]; systemic intraperitoneal injection): attenuate amphetamine-induced hyperactivity
Morphological AML differentiation (May-Grunwald Giemsa) (AML cell lines): induces morphological evidence of AML (acute myeloid leukemia) differentiation
Morphological AML differentiation (May-Grunwald Giemsa) (AML cell lines; listed as compound 70): demonstrated cellular differentiation
AML differentiation by GE-HTS signature (HL-60 and U937 cells): induces AML (acute myeloid leukemia) differentiation by GE-HTS signature; also recorded: induced a gene expression signature in AML cell lines consistent with myeloid differentiation
GSK3β fold selectivity (GSK3β [2]): 5 fold
Pharmacokinetic profile (systemic exposure, brain distribution) compared to CHIR99021 [3]: improved pharmacokinetic profile

COc1ccccc1[C@@H]1C2=C(CC(C)(C)CC2=O)Nc2n[nH]c(C)c21 [Compound 22]
Amphetamine-induced hyperactivity, ICV ([1]; intracerebroventricular injection): attenuate amphetamine-induced hyperactivity
Neurogenesis (human iPSC-NPCs): promoted neurogenesis
Mode of inhibition of GSK3β (GSK3β [4]): competitive inhibition

COc1ccccc1[C@@H]1C2=C(CC(C)(C)CC2=O)Nc2n[nH]c(C(F)(F)F)c21 [Compound 54, (R)-4-(2-methoxyphenyl)-7,7-dimethyl-3-(trifluoromethyl)-6,7,8,9-tetrahydro-2H-pyrazolo[3,4-b]quinolin-5(4H)-one]
recovery at 48 h (PBS stability; PBS, pH 7.4, after 48 hours of incubation, read-out: PBS stability, % still present (acetonitrile recovery)): > 95%
Concentration in PBS (0.1% DMSO) over time (PBS stability; over 48 hours, reflects kinetic solubility): about 200%
Glutathione (GSH) stability, % remaining (GSH stability): 99%
Mode of inhibition of GSK3β (GSK3β [4]): ATP-competitive inhibition
Plasma stability % remaining [5]: 99%
Microsomal Stability (M): M: 0%
Percent of the kinome (311 kinases) inhibited (panel of 311 kinases): 2.6%

Cc1[nH]nc2c1C(c1ccccc1)(C(F)(F)F)C1=C(CC(C)(C)CC1=O)N2 (centres unmarked) [Compound 83]
IC50 (GSK3α): < 100 nM
Microsomal stability 60 min (in mice, 60 min): 51.5
solubility (physchem): 410 µM (≈ 154 µg/mL)
fraction unbound at 5 h, 5 μM (in vitro): 0.102
